Data set [1] has as its system Sporothrix schenkii B62482. Nature of the data set: Antifungal activity in vitro (resazurin susceptibility screen), Inf. A. The class given is cell-based. The note with it: Sporothrix, B62482, Sporothrix schenkii B62482; 27 °C, 4 days, resa time 24 hours; highest in-test concentration 64 μM; read-out: Inf. A pIC50 (converted). In short, it runs like this:
(§1)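 This resazurin susceptibility screen used wells inoculated with 10^3 cfu per 200 μl in RPMI-MOPS, dispensed onto test plates holding spotted compound dilutions. Growth was normalised between fungus without antifungal (100%) and medium alone (0%).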
In general terms: Alamar Blue is a resazurin reagent that responds to reducing activity.

A further data set concerns Microsporum canis B68128. Nature of the data set: Antifungal activity in vitro (resazurin susceptibility screen), Inf. B. As to conditions: Microsporum canis, B68128, Microsporum canis B68128; 27 °C, 9 days, resa time 24 hours; read-out: Inf. B pIC50 (converted). The class given is cell-based. In short, it runs like this:
(§2)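 Each well was inoculated with 10^3 cfu of fungus onto dried, pre-spotted compound serial dilutions in RPMI-MOPS medium, with fungal growth read by resazurin. Growth was referenced to drug-free culture (100%) and medium-only (0%) controls on each plate.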

The subject of data set [2] is Trichophyton rubrum B68183. Put plainly: Antifungal activity in vitro (resazurin susceptibility screen), Inf. C. The class given is cell-based. The note with it: Trichophyton rubrum B68183; 27 °C, 7 days, resa time 24 hours; read-out: Inf. C pIC50 (converted). Put shortly:
as §1

The test system of data set [3] is Candida parapsilosis B66126. Nature of the data set: Antifungal activity in vitro (resazurin susceptibility screen), Inf. D. As to conditions: Lodderomyces parapsilosis; Candida parapsilosis B66126; 37 °C, 24 hours, resa time 4 hours; read-out: Inf. D pIC50 (converted). The class given is cell-based. In short, it runs like this: as §2
Data set [4] has as its system Aspergillus fumigatus B42928. Put plainly: Antifungal activity in vitro (resazurin susceptibility screen), Inf. E. The note with it: Aspergillus fumigatus B42928; 27 °C, 48 hours, resa time 17 hours; read-out: Inf. E pIC50 (converted). The class given is cell-based. In short, it runs like this:
as §1

Data set [5] deals with Cryptococcus neoformans B66663. Put plainly: Antifungal activity in vitro (resazurin susceptibility screen), Inf. F. The class given is cell-based. The note with it: Cryptococcus neoformans, B66663, Cryptococcus neoformans B66663; 37 °C, 24 hours, resa time 4 hours; read-out: Inf. F pIC50 (converted). In short, it runs like this: as §1
For data set [6], the system named is Trichophyton mentagrophytes B70554. Put plainly: Antifungal activity in vitro (resazurin susceptibility screen), Inf. G. The class given is cell-based. As to conditions: Trichophyton mentagrophytes, B70554, Trichophyton mentagrophytes B70554; 27 °C, 7 days, resa time 24 hours; read-out: Inf. G pIC50 (converted). Put shortly:
as §2

In data set [7] the test system is Scedosporium apiospermum IHEM3817. Nature of the data set: Antifungal activity in vitro (resazurin susceptibility screen), Inf. H. The class given is cell-based. As to conditions: 37 °C, 48 hours, resa time 17 hours, read-out: Inf. H pIC50 (converted). As for the experimental part:
(§3) The standard susceptibility screen was performed in 96-well plates (U-bottom, Greiner Bio-One). […] These serial dilutions (10 n1) were then spotted onto test-plates that could be stored in the dark at 4° C. for a maximum period of 2 weeks. […] The different fungal species/isolates (Table 3a) were cryopreserved and 1/1000 diluted in medium just prior to use. A standard inoculum of 200 μl containing 10^3 colony-forming unit (cfu) was then added to each well. A positive control (100% growth=fungal culture without antifungal) and a negative control (0% growth ═RPMI-MOPS medium) were included on each plate. […] [table]

Data set [8] has as its system Scedosporium prolificans IHEM21157. Put plainly: Antifungal activity in vitro (resazurin susceptibility screen), Inf. I. The class given is cell-based. The note with it: Lomentospora prolificans, 37 °C, 48 hours, resa time 17 hours, read-out: Inf. I pIC50 (converted). The method, then:
as §3

The subject of another data set is Rhizopus oryzae IHEM5223. Put plainly: Antifungal activity in vitro (resazurin susceptibility screen), Inf. J. The class given is cell-based. The note with it: Rhizopus arrhizus, 37 °C, 24 hours, resa time 6 hours, read-out: Inf. J pIC50 (converted). As for the experimental part:
as §3

Data set [9] has as its system Rhizomucor miehei IHEM13391. Put plainly: Antifungal activity in vitro (resazurin susceptibility screen), Inf. K. The class given is cell-based. The note with it: 37 °C, 48 hours, resa time 17 hours, read-out: Inf. K pIC50 (converted). The method, then: as §3
Data set [10] has as its system Mucor circinelloides IHEM21105. Put plainly: Antifungal activity in vitro (resazurin susceptibility screen), Inf. L. The class given is cell-based. As to conditions: 27 °C, 48 hours, resa time 17 hours, read-out: Inf. L pIC50 (converted). The method, then: as §3
Data set [11] is described as follows: Liver metabolic stability assay, hLM. The class given is in vitro ADME, human. As to conditions: human liver microsomes, 1 mg protein/ml, 5 μM test compound, 15 min, 37 °C. A general note: Liver microsomes are vesicles of endoplasmic reticulum, rich in cytochrome P450 enzymes.
Data set [12] in a line: Liver metabolic stability assay, gpLM. The class given is in vitro ADME, guinea pig. As to conditions: guinea pig microsomes, 1 mg protein/ml, 5 μM test compound, 15 min, 37 °C.
Another data set has as its target T1, CYP1A2 (Homo sapiens, UniProt P05177).
T1 sequence (P05177 1-516): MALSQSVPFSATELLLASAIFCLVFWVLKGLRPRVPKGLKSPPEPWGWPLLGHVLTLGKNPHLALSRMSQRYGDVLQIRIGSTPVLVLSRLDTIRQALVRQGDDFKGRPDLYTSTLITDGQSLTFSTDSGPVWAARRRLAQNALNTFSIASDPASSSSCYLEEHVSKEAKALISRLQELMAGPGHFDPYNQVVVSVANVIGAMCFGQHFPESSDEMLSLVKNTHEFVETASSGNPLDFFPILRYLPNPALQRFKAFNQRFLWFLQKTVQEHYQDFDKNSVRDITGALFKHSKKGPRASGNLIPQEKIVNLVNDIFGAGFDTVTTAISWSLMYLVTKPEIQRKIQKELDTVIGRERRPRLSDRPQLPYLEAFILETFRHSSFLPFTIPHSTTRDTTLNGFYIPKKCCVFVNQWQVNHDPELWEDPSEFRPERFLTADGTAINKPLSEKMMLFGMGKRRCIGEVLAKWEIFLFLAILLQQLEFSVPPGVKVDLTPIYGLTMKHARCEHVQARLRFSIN
Nature of the data set: Human liver microsomal cytochrome P450 inhibition assay, Protocol B. The class given is in vitro ADME. The note with it: liver microsomes, pH 7.4, probe resorufin, at 30 μM. As for the experimental part:
(§4) The samples are centrifuged for 10 min at 4° C. at 4000 rpm and the supernatant is analyzed. Analysis for CYP1A2 with resorufin was performed by fluorescence while the CY2D6 inhibition potential was assessed using LC-MS detection.

In the next data set the target is CYP2D6 (Homo sapiens, UniProt P10635). The description is as above. The class given is in vitro ADME. As to conditions: pH 7.4; at 30 μM; solvent condition B (0.30% DMSO+0.68% acetonitrile); human liver microsomes; probe dextromethorphan. The method, then: as §4
Chain of CYP2D6 (P10635 whole entry): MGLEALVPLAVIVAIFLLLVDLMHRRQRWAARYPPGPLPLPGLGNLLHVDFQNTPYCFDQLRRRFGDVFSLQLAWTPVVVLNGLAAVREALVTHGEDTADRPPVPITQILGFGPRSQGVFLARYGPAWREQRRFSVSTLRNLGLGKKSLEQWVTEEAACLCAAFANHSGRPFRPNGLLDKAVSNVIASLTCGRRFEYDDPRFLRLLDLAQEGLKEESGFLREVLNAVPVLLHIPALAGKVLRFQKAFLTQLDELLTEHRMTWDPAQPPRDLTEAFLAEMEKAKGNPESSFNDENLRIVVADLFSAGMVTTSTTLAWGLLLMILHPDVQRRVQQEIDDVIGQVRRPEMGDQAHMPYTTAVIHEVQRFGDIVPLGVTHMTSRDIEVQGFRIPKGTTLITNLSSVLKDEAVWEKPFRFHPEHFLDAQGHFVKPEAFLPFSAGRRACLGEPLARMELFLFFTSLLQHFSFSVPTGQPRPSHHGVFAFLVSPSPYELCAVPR

A value given as a limit tells only on which side of the number the result lay.

For orientation: inhibition means the relative decrease from the control value, in per cent. A low value points to little suppression. The term melting point denotes the temperature of the solid-liquid transition. On to `CC(=O)c1ccc(C2=NCc3ccc(Cl)cc3-n3cccc32)cc1` [Compound 18, 1-[4-(9-chloro-6H-pyrrolo[1,2-a][1,4]benzodiazepin-4-yl)phenyl]-ethanone], for which the melting point is 114.4 to 115.7 °C. For the same compound, in data set [1], the IC50 is 7.94 µM. Besides, the IC50 in the data set on Microsporum canis B68128 is 2 µM. Moreover, the IC50 in data set [2] is 0.316 µM. The IC50 in [3] is 63.1 µM. For the same compound, in [4], the IC50 was 0.501 µM. In addition, in data set [5], the IC50 was 1.58 µM. For the same compound, the IC50 in data set [6] was 1 µM. Further, the IC50 in data set [7] is 39.8 µM. Also, the IC50 in data set [8] was 12.6 µM. The IC50 in the data set on Rhizopus oryzae IHEM5223 is more than 63.1 µM. The IC50 in data set [9] is more than 63.1 µM. The IC50 in [10] was more than 63.1 µM. Besides, the “%-compound metabolised_Met_hLM” value in data set [11] is on record as 17%. Besides, the “%-compound metabolised Met_gpLM” value in data set [12] is reported as 36%. This compound displayed an inhibition at 10 min, 30 µM on CYP1A2 (solvent condition A (0.15% DMSO+[…] acetonitrile)) of 20 to 25%. Besides, at CYP1A2 (solvent condition B (0.30% DMSO+0.68% acetonitrile)), the inhibition at 10 min, 30 µM fell in the range of 25 to 35%. This compound also gave an inhibition at 10 min, 30 µM against CYP2D6 of 40 to 45%.

For the origin of these results see US9040523B2, “Antifungal 5,6-dihydro-4H-pyrrolo[1,2-α][1,4]-benzodiazepines and 6H-pyrrolo[1,2-α][1,4]benzodiazepines substituted with benzene derivatives” (JANSSEN PHARMACEUTICA NV, priority 2010, dated 2015).
